Measured values taken from US8680146B2, “Organic compounds” (Novartis AG, priority 2008, dated 2014).

Test: Solubility study of FTY720 salts in various solvents
Format: physicochemical
Conditions: approx. values at 25° C.
Description: The solubilities of various salts were assessed and are given in the table below (approx. values at 25° C., g/100 ml %): […]

Solubility in 0.1N HCl [g/100 ml %]	Solubility in Acetone [g/100 ml %]	Solubility in Ethanol [g/100 ml %]	Solubility in Ethylacetate [g/100 ml %]	Solubility in Isopropanol [g/100 ml %]	Solubility in Octanol	Solubility in Water [g/100 ml %]	Solubility in pH 6.88 phosphate buffer [g/100 ml %]	SMILES
>2	0.52	3.88	0.45	2.03	1-2 g/100 ml %	0.018	<0.001	CCCCCCCCc1ccc(CCC(N)(CO)CO)cc1 [Free Base, 2-amino-2-[2-(4-octylphenyl)ethyl]propane-1,3-diol]
>2	0.08	>7.94	0.03	4.51	1-2 g/100 ml %	>10	<0.001	CCCCCCCCc1ccc(CCC(N)(CO)CO)cc1.Cl [Hydrochloride, 2-amino-2-[2-(4-octylphenyl)ethyl]propane-1,3-diol hydrochloride salt]
